Source: ChEMBL document CHEMBL4834431, “Design of Dimeric Bile Acid Derivatives as Potent and Selective Human NTCP Inhibitors” (J Med Chem, 2021)
Calls of active or inactive are those of the source. The rule behind the calls is not given here.

Tests used:
[1] = Stability in mouse liver microsomes assessed as half life at 1 uM preincubated for 5 mins followed by NADPH addition and measured upto 60 mins by LC-MS analysis; type: ADME, Microsome; details: time 65 min
[2] = Stability in mouse liver microsomes assessed as intrinsic clearance at 1 uM preincubated for 5 mins followed by NADPH addition and measured upto 60 mins by LC-MS analysis; type: ADME, Microsome; details: time 65 min, read-out: CLH
[3] = target: T1, Hepatic sodium/bile acid cotransporter (Homo sapiens, UniProt Q14973); assay: Inhibition of human NTCP-mediated [3H]-TCA uptake expressed in human HepG2 cells pretreated for 2 hrs followed by [3H]-TCA addition in absence of FBS; type: cell-based
T1 sequence (Q14973 whole entry): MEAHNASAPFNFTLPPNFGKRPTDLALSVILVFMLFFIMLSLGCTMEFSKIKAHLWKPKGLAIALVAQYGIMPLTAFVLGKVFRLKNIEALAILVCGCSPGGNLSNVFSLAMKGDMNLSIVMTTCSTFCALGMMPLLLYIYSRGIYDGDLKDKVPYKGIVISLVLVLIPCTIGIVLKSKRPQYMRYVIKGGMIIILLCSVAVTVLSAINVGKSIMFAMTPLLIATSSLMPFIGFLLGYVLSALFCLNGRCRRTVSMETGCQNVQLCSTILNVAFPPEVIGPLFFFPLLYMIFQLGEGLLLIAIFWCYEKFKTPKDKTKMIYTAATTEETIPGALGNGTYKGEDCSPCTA

[4] = target: T1, Hepatic sodium/bile acid cotransporter; assay: Inhibition of human NTCP-mediated [3H]-TCA uptake expressed in human HepG2 cells in presence of 50 % FBS; type: cell-based
[5] = tested on: Hepatitis B virus; assay: Antiviral activity against HBV infected in human HepG2-NTCP cells assessed as reduction in HBeAg secretion incubated for 24 hrs followed replacement with fresh medium and measured at day 5 post infection by ELISA; type: functional, organism-based
[6] = target: T1, Hepatic sodium/bile acid cotransporter; assay: Inhibition of human NTCP-mediated [3H]-TCA uptake expressed in human HepG2 cells in presence of 20 % FBS; type: cell-based
[7] = tested on: Hepatitis B virus; assay: Antiviral activity against HBV infected in human HepG2-NTCP cells assessed as reduction in HBeAg secretion at 111 to 1000 nM incubated for 24 hrs followed by replacement with fresh medium and measured at day 5 post infection by ELISA; type: functional, organism-based; details: dose 111-1000 nM
[8] = target: T1, Hepatic sodium/bile acid cotransporter; assay: Inhibition of human NTCP-mediated NQL-064 uptake expressed in human HepG2 cells; type: cell-based
[9] = target: T1, Hepatic sodium/bile acid cotransporter; assay: Inhibition of human NTCP-mediated [3H]-TCA uptake expressed in human HepG2 cells at 2 uM; type: cell-based; details: hepg2, 2 µM
[10] = tested on: Hepatitis B virus; assay: Antiviral activity against HBV infected in human HepG2-NTCP cells assessed as reduction in intracellular accumulation of HBcAg at 1 uM by immunostaining based fluorescence microscopic analysis; type: functional, organism-based
[11] = tested on: HepG2; assay: Inhibition of monkey NTCP-mediated [3H]-TCA uptake expressed in human HepG2 cells; type: cell-based; details: Macaca mulatta
[12] = target: T1, Hepatic sodium/bile acid cotransporter; assay: Inhibition of FITC-labeled HBV Pre-S1 polypeptide binding to human NTCP expressed in HepG2 cells after 2 to 3 hrs by confocal microscopic analysis; type: cell-based; details: time 2-3 hrs
[13] = target: T2, Ileal sodium/bile acid cotransporter (Homo sapiens, UniProt Q12908); assay: Inhibition of human ASBT-mediated [3H]-TCA uptake expressed in human HepG2 cells at 2 uM; type: cell-based; details: hepg2, 2 µM
T2 sequence (Q12908 whole entry): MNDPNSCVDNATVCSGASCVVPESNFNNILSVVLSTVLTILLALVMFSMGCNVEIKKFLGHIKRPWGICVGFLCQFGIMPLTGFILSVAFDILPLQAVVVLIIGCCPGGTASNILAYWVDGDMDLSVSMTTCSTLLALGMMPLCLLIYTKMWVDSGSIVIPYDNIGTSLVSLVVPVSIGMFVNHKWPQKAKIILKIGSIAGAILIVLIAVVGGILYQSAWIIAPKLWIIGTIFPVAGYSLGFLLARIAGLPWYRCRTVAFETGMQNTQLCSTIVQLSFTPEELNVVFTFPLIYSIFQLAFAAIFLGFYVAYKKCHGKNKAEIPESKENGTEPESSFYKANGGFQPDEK

[14] = tested on: HepG2; assay: Cytotoxicity against human HepG2 cells expressing NTCP assessed as reduction in cell viability at 10 uM after 48 hrs by alamar blue assay; type: cell-based; details: hepg2, 48 h
[15] = tested on: HepG2; assay: Effect on NTCP surface expression in human HepG2-NTCP cells assessed as reduction in NTCP surface expression level after 2 hrs by immunostaining based assay; type: functional, cell-based
[16] = tested on: HepG2; assay: Inhibition of tree shrew NTCP-mediated [3H]-TCA uptake expressed in human HepG2 cells; type: cell-based; details: Scandentia
[17] = tested on: Hepatocyte; assay: Cytotoxicity against primary tupaia hepatocytes expressing NTCP assessed as reduction in cell viability at 100 uM after 48 hrs by Cell-Titer Glo assay; type: cell-based; details: scandentia
[18] = tested on: Hepatitis B virus; assay: Antiviral activity against HBV infected in human HepG2-NTCP cells assessed as reduction in intracellular HBV RNA level at 1 uM by qPCR analysis; type: functional, organism-based
[19] = tested on: HepG2; assay: Inhibition of monkey NTCP-mediated NQL-064 uptake expressed in human HepG2 cells; type: cell-based; details: Macaca mulatta
[20] = tested on: Hepatitis B virus; assay: Antiviral activity against HBV infected in human HepG2-NTCP cells assessed as reduction in HBeAg secretion at 1 uM preincubated with compound followed by viral infection by ELISA; type: functional, organism-based
[21] = tested on: Hepatitis B virus; assay: Antiviral activity against HBV infected in human HepG2-NTCP cells assessed as reduction in HBeAg secretion at 1 uM compound added along with viral infection by ELISA; type: functional, organism-based
[22] = target: T3, Hepatic sodium/bile acid cotransporter (Mus musculus, UniProt O08705); assay: Inhibition of mouse NTCP-mediated NQL-064 uptake expressed in human HepG2 cells; type: cell-based
T3 sequence (O08705 whole entry): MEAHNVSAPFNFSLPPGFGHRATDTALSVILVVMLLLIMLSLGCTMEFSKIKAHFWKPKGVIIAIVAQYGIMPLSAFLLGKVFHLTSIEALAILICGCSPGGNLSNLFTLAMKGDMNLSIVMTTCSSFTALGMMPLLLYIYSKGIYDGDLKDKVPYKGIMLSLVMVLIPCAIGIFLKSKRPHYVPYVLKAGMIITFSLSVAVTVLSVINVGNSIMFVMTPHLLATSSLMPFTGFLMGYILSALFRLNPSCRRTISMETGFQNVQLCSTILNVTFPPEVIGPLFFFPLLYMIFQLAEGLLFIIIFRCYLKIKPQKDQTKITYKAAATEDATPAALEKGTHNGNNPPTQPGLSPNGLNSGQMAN

[23] = target: T1, Hepatic sodium/bile acid cotransporter; assay: Inhibition of human NTCP-mediated [3H]-Estrone sulfate uptake expressed in human HepG2 cells at 2 uM; type: cell-based; details: hepg2, 2 µM
[24] = tested on: HepG2; assay: Inhibition of tree shrew NTCP-mediated NQ-064 uptake expressed in human HepG2 cells; type: cell-based; details: Scandentia
[25] = tested on: Hepatitis B virus; assay: Antiviral activity against HBV infected in human HepG2-NTCP cells assessed as reduction in HBeAg secretion at 1 uM pre-infected with virus followed by compound addition by ELISA; type: functional, organism-based
[26] = target: T1, Hepatic sodium/bile acid cotransporter; assay: Inhibition of human NTCP-mediated [3H]-TCA uptake expressed in human HepG2 cells; type: cell-based; details: human, hepg2
[27] = target: T4, Solute carrier organic anion transporter family member 1B1 (Homo sapiens, UniProt Q9Y6L6); assay: Inhibition of human OATP1B1-mediated [3H]-Estrone sulfate uptake expressed in human HepG2 cells at 2 uM; type: cell-based; details: hepg2, 2 µM
T4 sequence (Q9Y6L6 whole entry): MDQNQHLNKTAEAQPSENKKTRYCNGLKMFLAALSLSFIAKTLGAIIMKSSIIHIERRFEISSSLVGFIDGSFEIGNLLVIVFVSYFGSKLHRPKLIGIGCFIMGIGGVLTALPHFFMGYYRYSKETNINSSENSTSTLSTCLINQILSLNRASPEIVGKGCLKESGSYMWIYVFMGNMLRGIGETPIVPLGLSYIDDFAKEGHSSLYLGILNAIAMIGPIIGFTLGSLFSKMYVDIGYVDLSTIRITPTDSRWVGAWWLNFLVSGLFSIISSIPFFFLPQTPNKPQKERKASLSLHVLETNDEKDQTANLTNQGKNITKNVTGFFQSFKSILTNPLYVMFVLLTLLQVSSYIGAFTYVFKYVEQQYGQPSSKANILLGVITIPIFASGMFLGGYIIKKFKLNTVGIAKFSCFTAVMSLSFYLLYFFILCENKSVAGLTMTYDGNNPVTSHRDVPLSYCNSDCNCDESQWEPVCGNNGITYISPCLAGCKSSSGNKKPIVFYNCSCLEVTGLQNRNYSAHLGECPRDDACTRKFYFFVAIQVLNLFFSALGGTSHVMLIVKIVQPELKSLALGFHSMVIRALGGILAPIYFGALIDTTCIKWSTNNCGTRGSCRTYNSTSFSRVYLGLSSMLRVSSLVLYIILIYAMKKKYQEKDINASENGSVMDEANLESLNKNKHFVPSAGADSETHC

[28] = tested on: Hepatitis delta virus; assay: (§1) Antiviral activity against HDV infected in human HepG2-NTCP cells assessed as reduction in intranuclear accumulation of HDV delta antigen at 5 uM incubated for 24 hrs followed by replacement with fresh medium and measured at day 5 post infection by DAPI staining based confocal microscopic analysis (reference value: 12.1 %); type: functional; parameters: scale not given: the % may be the effect or the level left
[29] = tested on: Hepatitis B virus; assay: Antiviral activity against HBV infected in human HepG2-NTCP cells assessed as reduction in HBeAg secretion preincubated for 2 hrs followed by viral infection by ELISA; type: functional, organism-based
[30] = target: T3, Hepatic sodium/bile acid cotransporter; assay: Inhibition of mouse NTCP-mediated [3H]-TCA uptake expressed in human HepG2 cells; type: cell-based
[31] = tested on: Hepatitis B virus; assay: Antiviral activity against HBV infected in human HepG2-NTCP cells assessed as reduction in intracellular accumulation of HBsAg at 1 uM by immunostaining based fluorescence microscopic analysis; type: functional, organism-based
[32] = tested on: Hepatitis B virus; assay: Antiviral activity against HBV infected in human HepG2-NTCP cells assessed as reduction in HBeAg secretion measured at day 7 post infection by ELISA; type: functional, organism-based; details: HepG2, 168 h
[33] = target: T1, Hepatic sodium/bile acid cotransporter; assay: Inhibition of human NTCP-mediated [3H]-TCA uptake expressed in human HepG2 cells at 3.3 uM incubated for 10 mins by liquid scintillation counter analysis; type: cell-based; details: hepg2, 10 min
[34] = tested on: Hepatitis delta virus; assay: as §1, with “at 10” for “at 5”; type: functional; parameters: scale not given: the % may be the effect or the level left
[35] = tested on: Hepatitis B virus; assay: Antiviral activity against HBV infected in human HepG2-NTCP cells assessed as reduction in HBeAg secretion at 1 to 10 uM incubated for 24 hrs followed by replacement with fresh medium and measured at day 5 post infection by ELISA; type: functional, organism-based; details: dose 1-10 µM

C[C@H](CCc1cn([C@@H]2CC[C@@]3(C)[C@@H](C2)C[C@H](O)[C@@H]2[C@@H]3CC[C@]3(C)[C@@H]([C@H](C)CCC(=O)NCCS(=O)(=O)O)CC[C@@H]23)nn1)[C@H]1CC[C@H]2[C@@H]3[C@@H](O)C[C@@H]4C[C@H](O)CC[C@]4(C)[C@H]3CC[C@]12C
half-life at 1 µM [1]: 12.6 min
microsomal CLint at 1 µM [2]: 55.2 µL/min/mg
IC50 [3]: 0.0245 µM
IC50 [4]: > 10 µM
IC50 [5]: 0.024 µM
IC50 [6]: > 10 µM

C[C@H](CCC(=O)NCCS(=O)(=O)O)[C@H]1CC[C@H]2[C@@H]3[C@@H](O)C[C@@H]4C[C@H](OCc5cn([C@@H]6CC[C@@]7(C)[C@@H](C6)C[C@H](O)[C@@H]6[C@@H]7CC[C@]7(C)[C@@H]([C@H](C)CCC(=O)NCCS(=O)(=O)O)CC[C@@H]67)nn5)CC[C@]4(C)[C@H]3CC[C@]12C
Activity [7]: Active
inhibition (INH) [8]: Active
inhibition (INH) [9]: Active
Activity [10]: Active
inhibition [11]: inactive
inhibition (INH) [12]: Active
inhibition (INH) [13]: Not Active
Activity [14]: Non-Toxic
Activity [15]: inactive
inhibition [16]: inactive
Activity [17]: Non-Toxic
Activity [18]: Active
inhibition [19]: inactive
IC50 [5]: 0.012 µM
Activity [20]: Active
Activity [21]: Active
inhibition (INH) [22]: Not Active
inhibition (INH) [23]: Active
inhibition [24]: inactive
Activity [25]: inactive
inhibition (INH) [26]: Active
inhibition (INH) [27]: Not Active
Activity [28]: 1.8%
Activity [29]: inactive
inhibition (INH) [30]: Not Active
Activity [31]: Active

C[C@H](CCC(=O)NCCS(=O)(=O)O)[C@H]1CC[C@H]2[C@@H]3[C@@H](O)C[C@@H]4C[C@H](O)CC[C@]4(C)[C@H]3CC[C@]12C [TAURURSODIOL]
IC50 [32]: 3 µM
inhibition (INH) [33]: Not Active
Activity [34]: 7.1%
Activity [35]: inactive

CC(=O)O[C@@H]1CC[C@@]2(C)[C@@H](C1)C[C@H](O)[C@@H]1[C@@H]2CC[C@]2(C)[C@@H]([C@H](C)CCC(=O)NCCS(=O)(=O)O)CC[C@@H]12
inhibition (INH) [33]: Not Active
Activity [35]: inactive
